This is an account of results in patent US4401677A, “Enkephalinase inhibitors” (E. R. Squibb & Sons, Inc., priority 1981, dated 1983).

The IC50 is the concentration needed to halve the response being measured. Lower therefore signals greater potency.

The target of one experiment is T1, enkephalinase purified from membrane fractions of sheep corpus striatum (Ovis aries, UniProt A0ACI6S0K5).
T1 sequence (A0ACI6S0K5 2-750): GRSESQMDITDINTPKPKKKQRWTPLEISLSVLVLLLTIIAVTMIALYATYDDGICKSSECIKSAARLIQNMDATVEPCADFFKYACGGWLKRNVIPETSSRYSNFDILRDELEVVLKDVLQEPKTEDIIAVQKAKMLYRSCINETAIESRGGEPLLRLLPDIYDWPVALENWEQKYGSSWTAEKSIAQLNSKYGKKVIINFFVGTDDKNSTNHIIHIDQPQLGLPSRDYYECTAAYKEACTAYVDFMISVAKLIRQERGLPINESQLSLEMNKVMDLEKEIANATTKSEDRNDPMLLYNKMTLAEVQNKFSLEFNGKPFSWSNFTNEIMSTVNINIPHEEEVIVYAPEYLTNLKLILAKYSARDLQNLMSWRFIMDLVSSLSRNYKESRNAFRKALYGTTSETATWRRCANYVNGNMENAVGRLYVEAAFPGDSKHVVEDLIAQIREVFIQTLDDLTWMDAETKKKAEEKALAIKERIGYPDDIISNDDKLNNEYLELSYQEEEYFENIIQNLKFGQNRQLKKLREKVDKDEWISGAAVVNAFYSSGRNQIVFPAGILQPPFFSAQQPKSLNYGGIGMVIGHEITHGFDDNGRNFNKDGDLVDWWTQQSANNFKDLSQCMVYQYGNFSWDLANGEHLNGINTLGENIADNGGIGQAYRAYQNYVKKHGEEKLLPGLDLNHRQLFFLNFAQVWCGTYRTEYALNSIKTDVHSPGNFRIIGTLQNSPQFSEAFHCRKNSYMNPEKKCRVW
In words: inhibition of cleavage of [^3 H-Tyr^1, Leu^5 ]-enkephalin by purified enkephalinase (radiochromatographic method). It is filed as biochemical. The settings on record: 70 nM substrate, pH 7.0, 15 minutes at 37°; called I50. Here is the method: Frozen sheep striatia were homogenized in 20 volumes of 50 mM Tris (i.e., 2-amino-2-hydroxymethyl-1,3-propanediol)-hydrochloric acid buffer, pH 7.7, and centrifuged at 37,000×g. for 15 minutes. The sedimented material (membrane fraction), after being washed three times by resuspension and recentrifugation, was solubilized by stirring with half the original volume of 50 mM Tris-hydrochloric acid buffer, pH 7.7, containing 1% Triton X-100 (i.e., polyethylene glycol p-isooctylphenyl ether) nonionic detergent, followed by centrifugation for 2 hours at 37,000×g. […] Protein was eluted from the column with a one liter gradient of 0-0.4 M sodium chloride in the same buffer mixture, with 8.7 ml. fractions being collected.
Activity of the enzyme for purification and inhibitor studies was determined by the following radiochromatographic method. […] An aliquot of 0.01 ml. of acidified reaction mixture was spotted onto a Whatman LK 50 silica gel thin-layer chromatography plate along with the appropriate peptide standards. After development of the plate in a solvent composed of isopropanol:ethyl acetate:5% acetic acid (2:2:1), the spots corresponding to Tyr, Tyr-Gly, Tyr-Gly-Gly, and unreacted enkephalin (Tyr-Gly-Gly-Phe-Leu), as visualized with ninhydrin reaction, were scraped from the plate, and the incorporated radioactivity was counted in a liquid scintillation counter.
Take `CC(CS)C(=O)N[C@@H](Cc1ccc(O)cc1)C(=O)O` (mixture of isomers) [Ex. 4, N-(DL-3-Mercapto-2-methyl-1-oxopropyl)-L-tyrosine]: the IC50 came to 2.5 nM. Same read-out and setting: with `C[C@H](CS)C(=O)N[C@@H](Cc1ccc(O)c(O)c1)C(=O)O` [Ex. 6, 3-Hydroxy-N-(D-3-mercapto-2-methyl-1-oxopropyl)-L-tyrosine] the figure was 2.5 nM; with `N=C(N)NCCC[C@H](NC(=O)C(CS)Cc1ccccc1)C(=O)O` (mixture of isomers) [Ex. 2, N-[DL-2-(Mercaptomethyl)-1-oxo-3-phenylpropyl]-L-arginine], 85 nM; with `CC(C)CC(CS)C(=O)N[C@@H](CCCNC(=N)N)C(=O)O` (mixture of isomers) [Ex. 7, (±)-N^2-[2-(Mercaptomethyl)-4-methyl-1-oxopentyl]-L-arginine], 30 nM. Compound `CC(CS)C(=O)N[C@@H](CCCNC(=N)N)C(=O)O` (mixture of isomers) [Ex. 1, N-(DL-3-Mercapto-2-methyl-1-oxopropyl)-L-arginine] gave an IC50 of 150 nM. Regarding `CC(CS)C(=O)N[C@@H](Cc1c[nH]c2ccccc12)C(=O)O` (mixture of isomers) [Ex. 3, N-(DL-3-Mercapto-2-methyl-1-oxopropyl)-L-tryptophan], 5 nM corresponded to half-maximal inhibition (IC50). The same measure, in the same setting: with `CC(CS)C(=O)N[C@@H](Cc1ccc(O)c(O)c1)C(=O)O` (mixture of isomers) [Ex. 5, 3-Hydroxy-N-(DL-3-mercapto-2-methyl-1-oxopropyl)-L-tyrosine] the figure was 5 nM.

A further experiment deals with enkephalinase.
Assay: not given
The settings on record: cited from earlier work.
`O=C(O)CNC(=O)C(CS)Cc1ccccc1` (racemic) [thiorphan, [(DL-3-mercapto-2-benzylpropanoyl)]-glycine]: the “inhibitor of enkephalinase in vitro” value is recorded as “inhibitor of enkephalinase in vitro in nanomolar concentration”.
